Source: patent US8933230B2, “Phosphorus-containing group-substituted quinoline, its preparation process, medical composition containing the compounds and application” (priority 2011, dated 2015)

Legend:
Assay in all cases: KinomeScan kinase panel
Format in all cases: binding
[1] = molecular target: T1, ABL1(H396P)-phosphorylated (Homo sapiens, UniProt P00519, H396P)
T1 construct: purchased DiscoveRx Corporation (KinomeScan)
Procedure, shortened: (§1)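 Values come from one concentration only (1000 nM) within a broad 442-kinase KinomeScan screen.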

ASK2 = molecular target: T2, ASK2 (Homo sapiens, UniProt O95382)
T2 construct: purchased DiscoveRx Corporation (KinomeScan)
Procedure, shortened: as §1

AURKC = molecular target: T3, AURKC (Homo sapiens, UniProt Q9UQB9)
T3 construct: purchased DiscoveRx Corporation (KinomeScan)
T3 sequence (Q9UQB9 whole entry): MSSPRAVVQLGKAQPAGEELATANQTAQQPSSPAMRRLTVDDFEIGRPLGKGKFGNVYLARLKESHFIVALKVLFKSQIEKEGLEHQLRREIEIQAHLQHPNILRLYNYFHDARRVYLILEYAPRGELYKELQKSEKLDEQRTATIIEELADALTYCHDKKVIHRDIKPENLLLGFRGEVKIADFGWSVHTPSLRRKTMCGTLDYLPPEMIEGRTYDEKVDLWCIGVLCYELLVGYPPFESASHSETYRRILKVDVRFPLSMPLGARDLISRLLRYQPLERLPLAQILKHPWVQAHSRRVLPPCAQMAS
Procedure, shortened: as §1

CDC2L5 = molecular target: T4, CDC2L5 (Homo sapiens, UniProt Q14004)
T4 construct: purchased DiscoveRx Corporation (KinomeScan)
Procedure, shortened: as §1

CDK7 = molecular target: T5, CDK7 (Homo sapiens, UniProt P50613)
T5 construct: purchased DiscoveRx Corporation (KinomeScan)
Procedure, shortened: as §1

CDKL3 = molecular target: T6, CDKL3 (Homo sapiens, UniProt Q8IVW4)
T6 construct: purchased DiscoveRx Corporation (KinomeScan)
Procedure, shortened: as §1

EGFR = molecular target: T7, EGFR (Homo sapiens, UniProt P00533)
T7 construct: purchased DiscoveRx Corporation (KinomeScan)
Procedure, shortened: as §1

EGFR(L861Q) = molecular target: T8, EGFR(L861Q) (Homo sapiens, UniProt P00533, L861Q)
T8 construct: purchased DiscoveRx Corporation (KinomeScan)
Procedure, shortened: as §1

ERK1 = molecular target: T9, ERK1 (Homo sapiens, UniProt P27361)
T9 construct: purchased DiscoveRx Corporation (KinomeScan)
T9 sequence (P27361 whole entry): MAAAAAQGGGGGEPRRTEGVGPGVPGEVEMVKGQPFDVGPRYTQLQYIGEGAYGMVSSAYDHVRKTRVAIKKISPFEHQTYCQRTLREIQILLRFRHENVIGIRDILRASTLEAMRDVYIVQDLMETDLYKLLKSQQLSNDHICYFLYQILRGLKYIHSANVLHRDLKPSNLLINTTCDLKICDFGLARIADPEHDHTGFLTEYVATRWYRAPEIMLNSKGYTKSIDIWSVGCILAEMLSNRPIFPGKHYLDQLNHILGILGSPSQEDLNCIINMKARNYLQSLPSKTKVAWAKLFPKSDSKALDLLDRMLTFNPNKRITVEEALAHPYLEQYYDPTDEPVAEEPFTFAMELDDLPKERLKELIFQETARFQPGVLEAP
Procedure, shortened: as §1

FAK = molecular target: T10, FAK (Homo sapiens, UniProt Q05397)
T10 construct: purchased DiscoveRx Corporation (KinomeScan)
T10 sequence (Q05397 whole entry): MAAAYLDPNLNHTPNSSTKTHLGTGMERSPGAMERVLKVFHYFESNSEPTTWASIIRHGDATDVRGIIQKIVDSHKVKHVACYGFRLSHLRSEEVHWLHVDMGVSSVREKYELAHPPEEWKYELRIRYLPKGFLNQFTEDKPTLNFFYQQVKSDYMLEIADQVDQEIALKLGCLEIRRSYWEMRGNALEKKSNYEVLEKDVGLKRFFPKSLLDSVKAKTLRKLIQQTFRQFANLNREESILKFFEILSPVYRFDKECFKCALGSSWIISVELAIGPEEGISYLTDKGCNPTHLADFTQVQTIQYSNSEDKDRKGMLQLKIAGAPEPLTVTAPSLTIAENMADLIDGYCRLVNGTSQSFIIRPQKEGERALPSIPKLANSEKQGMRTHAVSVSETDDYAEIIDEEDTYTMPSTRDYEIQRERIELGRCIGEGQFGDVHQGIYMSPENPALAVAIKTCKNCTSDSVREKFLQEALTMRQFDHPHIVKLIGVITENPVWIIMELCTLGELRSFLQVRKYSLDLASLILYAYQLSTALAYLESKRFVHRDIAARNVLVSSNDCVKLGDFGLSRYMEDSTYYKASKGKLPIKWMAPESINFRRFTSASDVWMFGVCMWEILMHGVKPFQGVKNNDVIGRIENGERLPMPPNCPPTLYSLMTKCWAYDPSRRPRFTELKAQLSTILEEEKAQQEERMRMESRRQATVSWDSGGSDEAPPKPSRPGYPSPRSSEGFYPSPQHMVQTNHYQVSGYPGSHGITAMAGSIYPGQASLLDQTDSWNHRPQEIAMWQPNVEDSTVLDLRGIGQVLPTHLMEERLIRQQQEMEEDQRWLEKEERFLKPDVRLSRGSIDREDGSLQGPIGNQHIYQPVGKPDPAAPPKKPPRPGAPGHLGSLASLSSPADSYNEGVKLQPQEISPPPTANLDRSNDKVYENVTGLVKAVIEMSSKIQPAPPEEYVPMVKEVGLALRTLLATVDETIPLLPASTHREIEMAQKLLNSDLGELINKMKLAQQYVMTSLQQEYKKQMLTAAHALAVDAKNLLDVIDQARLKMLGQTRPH
Procedure, shortened: as §1

FER = molecular target: T11, FER (Homo sapiens, UniProt P16591)
T11 construct: purchased DiscoveRx Corporation (KinomeScan)
T11 sequence (P16591 whole entry): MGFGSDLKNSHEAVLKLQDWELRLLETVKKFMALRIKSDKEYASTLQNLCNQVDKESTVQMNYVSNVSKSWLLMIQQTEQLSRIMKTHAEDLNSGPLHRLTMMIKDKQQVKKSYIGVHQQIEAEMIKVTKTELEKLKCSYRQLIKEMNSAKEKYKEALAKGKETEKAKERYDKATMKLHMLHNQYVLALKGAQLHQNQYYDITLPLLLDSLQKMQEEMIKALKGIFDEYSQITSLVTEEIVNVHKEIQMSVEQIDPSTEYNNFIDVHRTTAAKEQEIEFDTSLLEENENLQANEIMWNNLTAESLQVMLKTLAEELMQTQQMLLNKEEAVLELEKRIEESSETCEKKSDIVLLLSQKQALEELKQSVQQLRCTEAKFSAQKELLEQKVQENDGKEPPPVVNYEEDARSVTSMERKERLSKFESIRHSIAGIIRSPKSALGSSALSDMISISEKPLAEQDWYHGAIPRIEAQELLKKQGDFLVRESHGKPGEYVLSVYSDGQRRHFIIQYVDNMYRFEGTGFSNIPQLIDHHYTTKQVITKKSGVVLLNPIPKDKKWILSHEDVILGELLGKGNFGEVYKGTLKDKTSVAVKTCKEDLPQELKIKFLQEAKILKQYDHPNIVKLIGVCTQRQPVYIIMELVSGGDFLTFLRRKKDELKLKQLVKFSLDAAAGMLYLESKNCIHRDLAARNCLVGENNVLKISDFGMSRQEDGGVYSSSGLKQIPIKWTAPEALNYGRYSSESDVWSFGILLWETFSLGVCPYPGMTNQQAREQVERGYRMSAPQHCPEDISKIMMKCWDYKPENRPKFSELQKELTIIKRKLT
Procedure, shortened: as §1

FGR = molecular target: T12, FGR (Homo sapiens, UniProt P09769)
T12 construct: purchased DiscoveRx Corporation (KinomeScan)
Procedure, shortened: as §1

FYN = molecular target: T13, FYN (Homo sapiens, UniProt P06241)
T13 construct: purchased DiscoveRx Corporation (KinomeScan)
Procedure, shortened: as §1

HUNK = molecular target: T14, HUNK (Homo sapiens, UniProt P57058)
T14 construct: purchased DiscoveRx Corporation (KinomeScan)
Procedure, shortened: as §1

IKK-epsilon = molecular target: T15, IKK-epsilon (Homo sapiens, UniProt Q14164)
T15 construct: purchased DiscoveRx Corporation (KinomeScan)
T15 sequence (Q14164 whole entry): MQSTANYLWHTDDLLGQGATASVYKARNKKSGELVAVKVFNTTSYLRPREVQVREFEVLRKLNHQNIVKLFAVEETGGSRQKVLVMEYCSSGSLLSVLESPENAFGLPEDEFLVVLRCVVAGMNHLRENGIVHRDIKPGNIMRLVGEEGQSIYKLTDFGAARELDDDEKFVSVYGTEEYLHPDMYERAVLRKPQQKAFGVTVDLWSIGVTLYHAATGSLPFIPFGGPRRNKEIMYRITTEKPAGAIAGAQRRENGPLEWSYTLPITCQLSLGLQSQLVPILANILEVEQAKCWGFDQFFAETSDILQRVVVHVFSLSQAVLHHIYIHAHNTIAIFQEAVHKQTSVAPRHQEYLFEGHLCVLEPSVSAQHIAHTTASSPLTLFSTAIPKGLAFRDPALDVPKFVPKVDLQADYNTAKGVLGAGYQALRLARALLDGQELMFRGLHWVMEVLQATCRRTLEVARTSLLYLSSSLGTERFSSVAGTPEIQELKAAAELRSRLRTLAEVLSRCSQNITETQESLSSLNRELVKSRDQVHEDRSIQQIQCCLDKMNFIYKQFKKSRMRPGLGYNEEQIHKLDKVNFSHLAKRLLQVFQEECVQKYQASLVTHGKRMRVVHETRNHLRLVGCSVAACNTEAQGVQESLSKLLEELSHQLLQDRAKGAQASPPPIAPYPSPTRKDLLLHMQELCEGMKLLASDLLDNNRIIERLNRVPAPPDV
Procedure, shortened: as §1

LATS1 = molecular target: T16, LATS1 (Homo sapiens, UniProt O95835)
T16 construct: purchased DiscoveRx Corporation (KinomeScan)
Procedure, shortened: as §1

LCK = molecular target: T17, LCK (Homo sapiens, UniProt P06239)
T17 construct: purchased DiscoveRx Corporation (KinomeScan)
Procedure, shortened: as §1

LOK = molecular target: T18, LOK (Homo sapiens, UniProt O94804)
T18 construct: purchased DiscoveRx Corporation (KinomeScan)
Procedure, shortened: as §1

LRRK2(G2019S) = molecular target: T19, LRRK2(G2019S) (Homo sapiens, UniProt Q5S007, G2019S)
T19 construct: purchased DiscoveRx Corporation (KinomeScan)
Procedure, shortened: as §1

MELK = molecular target: T20, MELK (Homo sapiens, UniProt Q14680)
T20 construct: purchased DiscoveRx Corporation (KinomeScan)
Procedure, shortened: as §1

MET(M1250T) = molecular target: T21, MET(M1250T) (Homo sapiens, UniProt P08581, M1250T)
T21 construct: purchased DiscoveRx Corporation (KinomeScan)
Procedure, shortened: as §1

MKNK2 = molecular target: T22, MKNK2 (Homo sapiens, UniProt Q9HBH9)
T22 construct: purchased DiscoveRx Corporation (KinomeScan)
Procedure, shortened: as §1

MLK2 = molecular target: T23, MLK2 (Homo sapiens, UniProt Q02779)
T23 construct: purchased DiscoveRx Corporation (KinomeScan)
Procedure, shortened: as §1

MLK3 = molecular target: T24, MLK3 (Homo sapiens, UniProt Q16584)
T24 construct: purchased DiscoveRx Corporation (KinomeScan)
Procedure, shortened: as §1

MTOR = molecular target: T25, MTOR (Homo sapiens, UniProt P42345)
T25 construct: purchased DiscoveRx Corporation (KinomeScan)
Procedure, shortened: as §1

NIM1 = molecular target: T26, NIM1 (Homo sapiens, UniProt Q8IY84)
T26 construct: purchased DiscoveRx Corporation (KinomeScan panel)
Procedure, shortened: as §1

PAK2 = molecular target: T27, PAK2 (Homo sapiens, UniProt Q13177)
T27 construct: purchased DiscoveRx Corporation (KinomeScan panel)
Procedure, shortened: as §1

PAK4 = molecular target: T28, PAK4 (Homo sapiens, UniProt O96013)
T28 construct: purchased DiscoveRx Corporation (KinomeScan panel)
Procedure, shortened: as §1

PIK3CA(18DDL) = molecular target: T29, PIK3CA(18DDL) (Homo sapiens, UniProt P42336, I800L)
T29 construct: purchased DiscoveRx Corporation (KinomeScan)
Procedure, shortened: as §1

PKN1 = molecular target: T30, PKN1 (Homo sapiens, UniProt Q16512)
T30 construct: purchased DiscoveRx Corporation (KinomeScan)
Procedure, shortened: as §1

PRKCH = molecular target: T31, PRKCH (Homo sapiens, UniProt P24723)
T31 construct: purchased DiscoveRx Corporation (KinomeScan)
T31 sequence (P24723 whole entry): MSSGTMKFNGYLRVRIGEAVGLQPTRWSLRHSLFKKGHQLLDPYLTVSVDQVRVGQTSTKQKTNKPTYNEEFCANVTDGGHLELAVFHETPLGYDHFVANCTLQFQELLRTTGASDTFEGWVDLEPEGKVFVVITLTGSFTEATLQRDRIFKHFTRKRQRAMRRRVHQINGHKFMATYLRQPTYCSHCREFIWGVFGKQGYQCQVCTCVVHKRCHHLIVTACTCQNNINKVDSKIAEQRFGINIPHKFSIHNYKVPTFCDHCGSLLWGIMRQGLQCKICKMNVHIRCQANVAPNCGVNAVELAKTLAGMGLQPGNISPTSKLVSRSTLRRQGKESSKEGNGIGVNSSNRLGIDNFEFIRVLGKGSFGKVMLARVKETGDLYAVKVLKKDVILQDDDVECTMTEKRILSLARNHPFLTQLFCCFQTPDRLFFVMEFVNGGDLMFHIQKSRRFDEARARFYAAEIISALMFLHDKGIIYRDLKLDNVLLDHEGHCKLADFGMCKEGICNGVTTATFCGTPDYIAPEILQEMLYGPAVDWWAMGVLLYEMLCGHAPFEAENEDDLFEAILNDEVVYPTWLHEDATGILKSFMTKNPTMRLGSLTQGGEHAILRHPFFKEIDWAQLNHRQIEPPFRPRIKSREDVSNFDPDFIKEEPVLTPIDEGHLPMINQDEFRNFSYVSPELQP
Procedure, shortened: as §1

SIK2 = molecular target: T32, SIK2 (Homo sapiens, UniProt Q9H0K1)
T32 construct: purchased DiscoveRx Corporation (KinomeScan)
T32 sequence (Q9H0K1 whole entry): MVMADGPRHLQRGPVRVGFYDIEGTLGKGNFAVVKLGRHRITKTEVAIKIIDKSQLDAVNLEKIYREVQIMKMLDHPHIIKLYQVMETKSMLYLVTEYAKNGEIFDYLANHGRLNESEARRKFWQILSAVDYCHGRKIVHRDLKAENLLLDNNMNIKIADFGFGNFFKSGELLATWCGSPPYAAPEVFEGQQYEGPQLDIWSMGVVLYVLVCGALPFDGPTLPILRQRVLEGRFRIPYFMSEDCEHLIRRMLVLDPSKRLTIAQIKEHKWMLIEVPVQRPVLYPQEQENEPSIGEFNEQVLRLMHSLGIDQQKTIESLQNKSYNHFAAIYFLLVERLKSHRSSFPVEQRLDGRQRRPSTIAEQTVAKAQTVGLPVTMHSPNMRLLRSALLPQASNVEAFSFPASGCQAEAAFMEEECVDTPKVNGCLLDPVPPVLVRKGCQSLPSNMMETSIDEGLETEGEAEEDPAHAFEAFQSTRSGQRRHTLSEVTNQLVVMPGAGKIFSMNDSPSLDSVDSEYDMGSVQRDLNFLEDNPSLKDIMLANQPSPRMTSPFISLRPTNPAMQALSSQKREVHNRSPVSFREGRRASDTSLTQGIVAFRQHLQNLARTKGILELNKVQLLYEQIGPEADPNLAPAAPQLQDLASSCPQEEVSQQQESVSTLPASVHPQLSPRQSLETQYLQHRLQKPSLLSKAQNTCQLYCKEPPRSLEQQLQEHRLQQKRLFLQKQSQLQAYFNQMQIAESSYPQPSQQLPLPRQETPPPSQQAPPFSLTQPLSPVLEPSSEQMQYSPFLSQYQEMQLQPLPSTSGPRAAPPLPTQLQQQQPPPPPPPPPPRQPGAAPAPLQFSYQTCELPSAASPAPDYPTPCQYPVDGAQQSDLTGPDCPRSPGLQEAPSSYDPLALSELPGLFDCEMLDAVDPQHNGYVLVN
Procedure, shortened: as §1

TIE2 = molecular target: T33, TIE2 (Homo sapiens, UniProt Q02763)
T33 construct: purchased DiscoveRx Corporation (KinomeScan)
Procedure, shortened: as §1

[2] = molecular target: T34, TYK2(JH1domain-catalytic) (Homo sapiens, UniProt P29597)
T34 construct: JH1domain; purchased DiscoveRx Corporation (KinomeScan)
Procedure, shortened: as §1

YANK2 = molecular target: T35, YANK2 (Homo sapiens, UniProt Q9NY57)
T35 construct: purchased DiscoveRx Corporation (KinomeScan service)
Procedure, shortened: as §1

YSK4 = molecular target: T36, YSK4 (Homo sapiens, UniProt Q56UN5)
T36 construct: purchased DiscoveRx Corporation (KinomeScan service)
Procedure, shortened: as §1

`CCOP(=O)(CN1CCC(COc2cc3nccc(Oc4ccc(NC(=O)C5(C(=O)Nc6ccc(F)cc6)CC5)cc4F)c3cc2OC)CC1)OCC` [Example 10, N1-[4-[[7-[[1-(diethoxyphosphorylmethyl)-4-piperidinyl]methoxyl]-6-methoxyl-4-quinolyl]oxyl]-3-fluorophenyl]-N1′-(4-fluorophenyl)cyclopropane-1,1-dicarboxamide] was tested, and the “% Ctrl@1000 nM” value [1] was 63 % Ctrl, the “% Ctrl@1000 nM” value (ASK2) was 100 % Ctrl and the “% Ctrl@1000 nM” value (AURKC) was 66 % Ctrl. For the same compound, the “% Ctrl@1000 nM” value (CDC2L5) was 100 % Ctrl, the “% Ctrl@1000 nM” value (CDK7) was 15 % Ctrl and the “% Ctrl@1000 nM” value (CDKL3) was 100 % Ctrl. For the same compound, the “% Ctrl@1000 nM” value (EGFR) was 100 % Ctrl, the “% Ctrl@1000 nM” value (EGFR(L861Q)) was 84 % Ctrl and the “% Ctrl@1000 nM” value (ERK1) was 99 % Ctrl. For the same compound, the “% Ctrl@1000 nM” value (FAK) was 51 % Ctrl, the “% Ctrl@1000 nM” value (FER) was 50 % Ctrl and the “% Ctrl@1000 nM” value (FGR) was 35 % Ctrl. The “% Ctrl@1000 nM” value (FYN) was 48 % Ctrl, the “% Ctrl@1000 nM” value (HUNK) was 100 % Ctrl and the “% Ctrl@1000 nM” value (IKK-epsilon) was 94 % Ctrl. For the same compound, the “% Ctrl@1000 nM” value (LATS1) was 100 % Ctrl, the “% Ctrl@1000 nM” value (LCK) was 2.2 % Ctrl and the “% Ctrl@1000 nM” value (LOK) was 0 % Ctrl. The “% Ctrl@1000 nM” value (LRRK2(G2019S)) was 100 % Ctrl, the “% Ctrl@1000 nM” value (MELK) was 29 % Ctrl and the “% Ctrl@1000 nM” value (MET(M1250T)) was 3 % Ctrl. The “% Ctrl@1000 nM” value (MKNK2) was 0.05 % Ctrl, the “% Ctrl@1000 nM” value (MLK2) was 78 % Ctrl and the “% Ctrl@1000 nM” value (MLK3) was 63 % Ctrl. For the same compound, the “% Ctrl@1000 nM” value (MTOR) was 100 % Ctrl, the “% Ctrl@1000 nM” value (NIM1) was 100 % Ctrl and the “% Ctrl@1000 nM” value (PAK2) was 54 % Ctrl. For the same compound, the “% Ctrl@1000 nM” value (PAK4) was 100 % Ctrl, the “% Ctrl@1000 nM” value (PIK3CA(18DDL)) was 100 % Ctrl and the “% Ctrl@1000 nM” value (PKN1) was 100 % Ctrl. The “% Ctrl@1000 nM” value (PRKCH) was 100 % Ctrl, the “% Ctrl@1000 nM” value (SIK2) was 100 % Ctrl and the “% Ctrl@1000 nM” value (TIE2) was 2.4 % Ctrl. For the same compound, the “% Ctrl@1000 nM” value [2] was 92 % Ctrl, the “% Ctrl@1000 nM” value (YANK2) was 100 % Ctrl and the “% Ctrl@1000 nM” value (YSK4) was 1.7 % Ctrl.
